Assay results from patent EP0036357A1, “Antalgic and antiagregant cetonic derivatives of 5,6-diaryl-1,2,4-triazines, usable in the treatment of migraine” (PIERRE FABRE S.A., priority 1980, dated 1981).
Like-named read-outs stand apart in the source and are kept apart here.

How the values were obtained:
[1] = Qualitative solubility in solvents; assay type: physicochemical; conditions: for Insoluble dans: solvents in which the compound is insoluble; for Soluble dans: solvents in which the compound is soluble
[2] = Acute toxicity (LD50) in mice, Miller and Tainter method; conditions: in vivo, mouse about 20 g
Source text: L'étude de la toxicité a été effectuée chez la souris conventionnelle pesant environ 20 grammes.
Les substances ont été administrées par voie orale et intrapéritonéale. Les doses létales 50 sont exprimées en mg/kg et ont été calculées selon la méthode de MILLER et TAINTER, Proc. Soc. Exper. Biol. Med. 1944, 57, 261.
A titre d'exemple dans le tableau ci-dessous figurent quelques valeurs de doses toxiques provoquant 50 % de mortalité.

[3] = tested on: contorsions à la phényl benzoquinone; experiment: Phenylbenzoquinone writhing test (Siegmund), analgesic activity; assay type: in vivo, souris; conditions: po, 0.5 h; dose giving 50 % decrease of writhes; per os, mouse, 30 minutes before i.p. phenylbenzoquinone; read-out: DE50 (the source's name)
Description: L'activité sur le test des contorsions à la phényl benzoquinone (selon SIEGMUND et Coll. - J. Pharm. Exptl. Ther. 1957, 119, 453) […] administration du produit per os; la dose est exprimée en mg/kg chez la souris 30 minutes avant l'injection […] sont exprimés en pourcentage de variation du nombre de contorsions; pour les molécules les plus actives, nous avons déterminé la dose qui provoque 50 % de diminution des contorsions DE50. Dans le tableau ci-dessous nous avons répertorié les molécules dont l'activité est supérieure ou é[…] (DE50 ≃ 40).

[4] = Tolerance on repeated administration; assay type: in vivo
[5] = ip, intraperitoneal route, read-out: DL50 voie I.P.
[6] = oral route, read-out: DL50 voie orale

Row | SMILES | Insoluble dans [1] | Soluble dans [1] | LD50 [2, 5] [mg/kg] | LD50 [2, 6] [mg/kg] | ED50 [3] [mg/kg] | tolérées par administration répétée [4]
1 | COc1ccc(-c2nc(=O)n(C(C(=O)c3ccccc3)c3ccccc3)nc2-c2ccc(OC)cc2)cc1 (stereo not drawn) [ST 908, Oxo-3 (α phénylacétophénone)-2 di (paraméthoxyphényl)-5-6 as triazine] | l'eau, les acides et les bases dilués | l'éthanol, le chlorure de méthylène, le chloroforme et l'éther | > 500 | > 1000 | – | –
2 | CC(=O)C(C)n1nc(-c2ccc(N(C)C)cc2)c(-c2ccc(N(C)C)cc2)nc1=O (stereo not shown) [ST 802, Oxo-3αméthylacétonyl-2 di(paradiméthylaminophényl) 5-6 as triazine] | l'eau, les bases diluées et l'éther | les acides dilués aqueux, l'éthanol, le benzène, le chlorure de méthylène et le chloroforme | – | > 1500 | 5 | –
3 | CN(C)c1ccc(-c2nc(=O)n(CC(=O)c3ccc(O)c(O)c3)nc2-c2ccc(N(C)C)cc2)cc1 [ST 842, Oxo-3 (3,4 dihydroxyphénacyl)-2 di(paradiméthylaminophényl) 5-6 as triazine] | l'eau, le benzène, le chlorure de méthylène, l'éther | les acides et les basés dilués et l'éthanol | – | > 1000 | – | –
4 | COc1ccc(-c2nc(=O)n(C(C)C(C)=O)nc2-c2ccc(OC)cc2)cc1 (stereo not drawn) [ST 765, Oxo-3 α méthylacétonyl-2 di (paraméthoxyphényl) 5-6 as triazine] | l'eau, les acides et bases dilués, et l'éther | l'éthanol, le benzène, le chlorure de méthylène et le chloroforme | > 1000 | > 2000 | 10 | les mieux tolérées
5 | CC(=O)CCCn1nc(-c2ccc(N(C)C)cc2)c(-c2ccc(N(C)C)cc2)nc1=O [ST 924, Oxo-3 (δ propylméthylcétone)-2 di(p-diméthylaminophényl)-5-6 as triazine] | – | – | – | > 1500 | 7 | –
6 | COc1ccc(-c2nc(=O)n(CC(=O)c3ccc(O)c(O)c3)nc2-c2ccc(OC)cc2)cc1 [ST 827, Oxo-3 (3,4 dihydroxyphénacyl)-2 di(paraméthoxyphényl) 5-6 as triazine] | l'eau, les acides dilués, le benzène, le chlorure de méthylène et l'éther | les bases diluées et l'éthanol | – | > 1000 | – | –
7 | CCC(=O)CCn1nc(-c2ccc(N(C)C)cc2)c(-c2ccc(N(C)C)cc2)nc1=O [ST 925, Oxo-3 ( δ diéthylcétone)-2 di(paradiméthyaminophényl) 5, 6 as triazine] | l'eau, les bases diluées et l'éther | les acides dilués, l'éthanol, le benzène, le chlorure de méthylène et le chloroforme | > 500 | > 1000 | 5 | –
8 | COc1ccc(-c2nc(=O)n(CC(C)=O)nc2-c2ccc(OC)cc2)cc1 [ST 753, Oxo-3 acétonyl-2 di(paraméthoxyphényl) 5-6 as triazine] | l'eau, les acides et bases dilués, l'éther | l'éthanol, le benzène, le chlorure de méthylène et le chloroforme | > 500 | > 1500 | 15 | les mieux tolérées
9 | CN(C)c1ccc(-c2nc(=O)n(CC(=O)c3ccccc3)nc2-c2ccc(N(C)C)cc2)cc1 [ST 813, Oxo-3 acétophényl-2 di (paradiméthylaminophényl) 5-6 as triazine] | l'eau, les bases diluées, le benzène, l'éthanol et l'éther | les acides dilués aqueux, le chlorure de méthylène et le chloroforme | ~750 | > 1000 | – | –
10 | COc1ccc(-c2nc(=O)n(CC(=O)c3ccc(Br)cc3)nc2-c2ccc(OC)cc2)cc1 [ST 844, Oxo-3 (p-bromophénacyl)-2 di(paraméthoxyphényl) 5-6 as triazine] | l'eau, les acides et bases dilués | l'éthanol, le benzène, le chlorure de méthylène, le chloroforme | ~800 | > 2000 | – | –
11 | CN(C)c1ccc(-c2nc(=O)n(C(C(=O)c3ccccc3)c3ccccc3)nc2-c2ccc(N(C)C)cc2)cc1 (stereo not drawn) [ST 911, Oxo-3 (α phénylacétophénone)-2 di(paradiméthylaminophényl) 5-6 as triazine] | l'eau, les bases diluées, l'éthanol et l'éther | les acides dilués, le benzène, le chlorure de méthylène et le chloroforme | – | > 1000 | – | –
12 | CC(=O)Cn1nc(-c2ccc(N(C)C)cc2)c(-c2ccc(N(C)C)cc2)nc1=O [ST 910, Oxo-3 acétonyl-2 di(paradiméthylaminophényl) 5-6 as triazine] | l'eau et les bases diluées, le benzène et l'éther | les acides dilués, l'éthanol, le chlorure de méthylène et le chloroforme | – | > 1500 | 4 | –
13 | CCC(=O)CCn1nc(-c2ccc(OC)cc2)c(-c2ccc(OC)cc2)nc1=O [ST 966, Oxo-3 (δ diéthylcétone)-2 di(paraméthoxyphényl)-5, 6 as triazine] | l'eau, les bases et les acides dilués et l'éther | l'éthanol, le benzène, le chlorure de méthylène et le chloroforme | – | > 2000 | – | –
14 | O=C(OCC(O)CO)c1ccccc1Nc1ccnc2cc(Cl)ccc12 (stereo not shown) [glafénine, reference compound] | – | – | – | – | ~40 | –
